From the supplement of paper PMC10307832

What was measured:
Assay in all cases: relative viability (nuclei count vs DMSO), 5 days (fraction); higher = more cells survive
[1] = test system: LK-2
Summary of the method: (§1)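 Relative viability equals treated-well nuclei counts divided by vehicle-well nuclei counts. Counts came from 4× images of lung cancer cell lines grown in 1536-well plates for 5 days after pin-tool dosing on the day after seeding. Dosing used one drug alone or a fixed anchor-drug dose plus five library-drug doses (not always all listed) in √10 steps, and values are medians of duplicate plates.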

[2] = test system: NCI-H2085
Summary of the method: as §1

[3] = test system: SW 1573
Summary of the method: as §1

[4] = test system: NCI-H650
Summary of the method: as §1

[5] = test system: NCI-H460
Summary of the method: as §1

[6] = test system: ChaGo-K-1
Summary of the method: as §1

[7] = test system: NCI-H596
Summary of the method: as §1

[8] = test system: NCI-H1944
Summary of the method: as §1

[9] = test system: NCI-H2347
Summary of the method: as §1

[10] = test system: A-427
Summary of the method: as §1

[11] = test system: NCI-H1666
Summary of the method: as §1

[12] = test system: NCI-H520
Summary of the method: as §1

[13] = test system: NCI-H358
Summary of the method: as §1

[14] = test system: NCI-H441
Summary of the method: as §1

[15] = test system: NCI-H1355
Summary of the method: as §1

[16] = test system: NCI-H322M
Summary of the method: as §1

[17] = test system: NCI-H1650
Summary of the method: as §1

[18] = test system: NCI-H838
Summary of the method: as §1

[19] = test system: NCI-H3122
Summary of the method: as §1

[20] = test system: H3255
Summary of the method: as §1

[21] = test system: NCI-H1755
Summary of the method: as §1

[22] = test system: EKVX
Summary of the method: as §1

With O=c1[nH]c2ccccc2n1C1CCN(CCCC(c2ccc(F)cc2)c2ccc(F)cc2)CC1 [Pimozide] + Nc1ncn([C@H]2C[C@H](O)[C@@H](CO)O2)c(=O)n1 [Decitabine] (partner 2 µM) the relative viability ([1]; first compound 0.08 µM) was 0.25, the relative viability ([1]; first compound 0.253 µM) was 0.289 and the relative viability ([1]; first compound 0.8 µM) was 0.28. It also gave a relative viability ([1]; first compound 2.53 µM) of 0.296, a relative viability ([1]; first compound 8 µM) of 0.33 and a relative viability ([2]; first compound 0.08 µM) of 0.545. For the same compound, the relative viability ([2]; first compound 0.253 µM) was 0.544, the relative viability ([2]; first compound 0.8 µM) was 0.573 and the relative viability ([2]; first compound 2.53 µM) was 0.551. The relative viability ([2]; first compound 8 µM) was 0.585, the relative viability ([3]; first compound 0.08 µM) was 0.555 and the relative viability ([3]; first compound 0.253 µM) was 0.52. For the same compound, the relative viability ([3]; first compound 0.8 µM) was 0.499, the relative viability ([3]; first compound 2.53 µM) was 0.371 and the relative viability ([3]; first compound 8 µM) was 0.384. For the same compound, the relative viability ([4]; first compound 0.08 µM) was 0.278, the relative viability ([4]; first compound 0.253 µM) was 0.33 and the relative viability ([4]; first compound 0.8 µM) was 0.342. It also gave a relative viability ([4]; first compound 2.53 µM) of 0.321, a relative viability ([4]; first compound 8 µM) of 0.275 and a relative viability ([5]; first compound 0.08 µM) of 0.553. It also gave a relative viability ([5]; first compound 0.253 µM) of 0.494, a relative viability ([5]; first compound 0.8 µM) of 0.462 and a relative viability ([5]; first compound 2.53 µM) of 0.521. For the same compound, the relative viability ([5]; first compound 8 µM) was 0.45, the relative viability ([6]; first compound 0.08 µM) was 0.515 and the relative viability ([6]; first compound 0.253 µM) was 0.453. For the same compound, the relative viability ([6]; first compound 0.8 µM) was 0.5, the relative viability ([6]; first compound 2.53 µM) was 0.546 and the relative viability ([6]; first compound 8 µM) was 0.546. For the same compound, the relative viability ([7]; first compound 0.08 µM) was 0.97, the relative viability ([7]; first compound 0.253 µM) was 0.931 and the relative viability ([7]; first compound 0.8 µM) was 0.986. It also gave a relative viability ([7]; first compound 2.53 µM) of 0.85, a relative viability ([7]; first compound 8 µM) of 1.08 and a relative viability ([8]; first compound 0.08 µM) of 0.398. It also gave a relative viability ([8]; first compound 2.53 µM) of 0.436, a relative viability ([8]; first compound 8 µM) of 0.393 and a relative viability ([9]; first compound 0.08 µM) of 0.651. For the same compound, the relative viability ([9]; first compound 0.253 µM) was 0.589, the relative viability ([9]; first compound 0.8 µM) was 0.574 and the relative viability ([9]; first compound 2.53 µM) was 0.594. For the same compound, the relative viability ([9]; first compound 8 µM) was 0.559, the relative viability ([10]; first compound 0.08 µM) was 0.527 and the relative viability ([10]; first compound 0.253 µM) was 0.583. The relative viability ([10]; first compound 0.8 µM) was 0.606, the relative viability ([10]; first compound 2.53 µM) was 0.479 and the relative viability ([10]; first compound 8 µM) was 0.57. It also gave a relative viability ([11]; first compound 0.08 µM) of 0.688, a relative viability ([11]; first compound 0.253 µM) of 0.738 and a relative viability ([11]; first compound 0.8 µM) of 0.696. The relative viability ([11]; first compound 2.53 µM) was 0.695, the relative viability ([11]; first compound 8 µM) was 0.784 and the relative viability ([12]; first compound 0.08 µM) was 0.455. The relative viability ([12]; first compound 0.253 µM) was 0.428, the relative viability ([12]; first compound 0.8 µM) was 0.453 and the relative viability ([12]; first compound 2.53 µM) was 0.519. It also gave a relative viability ([12]; first compound 8 µM) of 0.613, a relative viability ([13]; first compound 0.08 µM) of 0.196 and a relative viability ([13]; first compound 0.253 µM) of 0.219. The relative viability ([13]; first compound 0.8 µM) was 0.315, the relative viability ([13]; first compound 2.53 µM) was 0.213 and the relative viability ([13]; first compound 8 µM) was 0.228. For the same compound, the relative viability ([14]; first compound 0.08 µM) was 0.208, the relative viability ([14]; first compound 0.253 µM) was 0.255 and the relative viability ([14]; first compound 0.8 µM) was 0.234. It also gave a relative viability ([14]; first compound 2.53 µM) of 0.236, a relative viability ([14]; first compound 8 µM) of 0.241 and a relative viability ([15]; first compound 0.08 µM) of 0.345. It also gave a relative viability ([15]; first compound 0.253 µM) of 0.332, a relative viability ([15]; first compound 0.8 µM) of 0.339 and a relative viability ([15]; first compound 2.53 µM) of 0.339. It also gave a relative viability ([15]; first compound 8 µM) of 0.337, a relative viability ([16]; first compound 0.08 µM) of 0.581 and a relative viability ([16]; first compound 0.253 µM) of 0.705. For the same compound, the relative viability ([16]; first compound 0.8 µM) was 0.719, the relative viability ([16]; first compound 2.53 µM) was 0.772 and the relative viability ([16]; first compound 8 µM) was 0.632. For the same compound, the relative viability ([17]; first compound 0.08 µM) was 0.287, the relative viability ([17]; first compound 0.253 µM) was 0.485 and the relative viability ([17]; first compound 0.8 µM) was 0.315. It also gave a relative viability ([17]; first compound 2.53 µM) of 0.404, a relative viability ([17]; first compound 8 µM) of 0.405 and a relative viability ([18]; first compound 0.08 µM) of 0.487. It also gave a relative viability ([18]; first compound 0.253 µM) of 0.395, a relative viability ([18]; first compound 0.8 µM) of 0.42 and a relative viability ([18]; first compound 2.53 µM) of 0.43. It also gave a relative viability ([18]; first compound 8 µM) of 0.469, a relative viability ([19]; first compound 0.08 µM) of 0.435 and a relative viability ([19]; first compound 0.253 µM) of 0.392. The relative viability ([19]; first compound 0.8 µM) was 0.418, the relative viability ([19]; first compound 2.53 µM) was 0.413 and the relative viability ([19]; first compound 8 µM) was 0.416. The relative viability ([20]; first compound 0.253 µM) was 0.538, the relative viability ([20]; first compound 0.8 µM) was 0.496 and the relative viability ([20]; first compound 2.53 µM) was 0.626. The relative viability ([20]; first compound 8 µM) was 0.734, the relative viability ([21]; first compound 0.08 µM) was 0.675 and the relative viability ([21]; first compound 0.253 µM) was 0.659. The relative viability ([21]; first compound 0.8 µM) was 0.624, the relative viability ([21]; first compound 2.53 µM) was 0.684 and the relative viability ([21]; first compound 8 µM) was 0.69. It also gave a relative viability ([22]; first compound 0.253 µM) of 0.333, a relative viability ([22]; first compound 0.8 µM) of 0.341 and a relative viability ([22]; first compound 2.53 µM) of 0.349. For the same compound, the relative viability ([22]; first compound 8 µM) was 0.364.
